Tested on: Xen29, a Staphylococcus aureus strain
Assay: Kirby Bauer disc diffusion assay of Ciprodex-loaded chitosan
Assay type: cell-based
Conditions: loaded in chitosan; growth inhibition of Xen29
Source text: FIG. 27 depicts results of the Kirby Bauer disc diffusion assay.
To estimate the concentration of ciprofloxacin released by the chitosan, a standard curve was established using blank paper discs and known dilutions of Ciprodex.

SMILES: O=C(O)c1cn(C2CC2)c2cc(N3CCNCC3)c(F)cc2c1=O [Ciprofloxacin, ciprofloxacin]
- bioactivity of loaded Ciprofloxacin: maintained its bioactivity

Source: patent publication US20260240644A1, “BIOPOLYMER-BASED TYMPANOSTOMY TUBES WITH PROGRAMMABLE, TUNABLE, AND ON-DEMAND DEGRADATION” (Trustees of Tufts College, priority 2023, published 2026)
